Patent publication US4234586A, “Nitrogen bridgehead compounds having anti-allergic effect” (Chinoin Gyogyszer es Vegyeszeti Termekek Gyara Rt., priority 1977, dated 1980)
Values belong to the compound of their own block, whether it stands above or below them.

Experiments:
rats [1] = test: PCA test (antiallergic effect, rats); assay type: in vivo, rat; settings: for ED50 / inhibition in vivo at 320 µM, 320 µmol/kg: Rattus norvegicus; for inhibition in vivo at 320 µM, 320 µmol/kg: single dose of 320 μM/kg, route not given, read-out: PCA test, percentage of activity for a single dose of 320 μM/kg
Experimental: (§1) The PCA text [Ovary: J. Immun. 81, 355 (1958)] and the Church test [British J. Pharm. 46, 56-66 (1972); Immunology 29, 527-534 (1975)] were used. The tests were carried out on rats.

Released Hist. = Released Hist. in vitro; assay type: cell-based; settings: Rattus norvegicus
Experimental: as §1

rats [2] = test: Church test (antiallergic effect, rats); assay type: in vivo; settings: Rattus norvegicus, iv
Experimental: as §1

asthma = settings: desired effect only by inhalation (spinhaler); cited from earlier work
[3] = iv, read-out: ED50 in the PCA test, further compounds
[4] = iv, rats, i.v., second part of Table 1, read-out: PCA test ED50 i.v.
[5] = iv, rats, i.v., read-out: PCA test ED50 i.v.
[6] = po, rats, p.o., read-out: PCA test ED50 p.o.

- EC50 (Released Hist.; third part of Table 1): 17.6 µM
Compound: CCOc1ccc(NN=C2CCC(C)n3c2ncc(C(=O)O)c3=O)cc1 (centres unmarked) [Example 35, 9-(p-ethoxy-phenyl-hydrazono)-6-methyl-4-oxo-6,7,8,9-tetrahydro-4H-pyrido(1,2-a)pyrimidine-3-carboxylic acid]
- ED50 (rats [1]; [3]): 1 µmol/kg
- inhibition in vivo at 320 µM, 320 µmol/kg (rats [1]; rats): 100%

- EC50 (Released Hist.; third part of Table 1): 90 µM
Compound: CC1CCC(=NN)c2ncc(C(=O)O)c(=O)n21 (centres unmarked) [Example 26, 9-hydrazono-6-methyl-4-oxo-6,7,8,9-tetrahydro-4H-pyrido(1,2-a)pyrimidine-3-carboxylic acid]
- inhibition in vivo at 320 µM, 320 µmol/kg (rats [1]; rats): 89%

- EC50 (Released Hist.; second part of Table 1): 120 µM
Compound: CC1CCC(=NNc2cccnc2)c2ncc(C(=O)O)c(=O)n21 (centres unmarked) [Example 23, 6-methyl-9-(3-pyridyl-hydrazono)-4-oxo-6,7,8,9-tetrahydro-4H-pyrido(1,2-a)pyrimidine-3-carboxylic acid]
- ED50 (rats [1]; [4]): 0.53 µmol/kg
- ED50 (rats [1]; [3]): 0.54 µmol/kg

Compound: CC1CCC(=NNc2ccccc2)c2ncc(C(=O)O)c(=O)n21 (single isomer, unassigned; (+)) [Example 37, (+)-9-(phenyl-hydrazono)-6-methyl-4-oxo-6,7,8,9-tetrahydro-4H-pyrido(1,2-a)pyrimidine-3-carboxylic acid]
- ED50 (rats [1]; [5]): 0.29 µmol/kg
- ED50 (rats [1]; [6]): 1 µmol/kg
- ED50 (rats [2]): 0.14 µmol/kg

- EC50 (Released Hist.; second part of Table 1): 100 µM
Compound: CC1CCC(=NNc2ccc(Cl)cc2)c2ncc(C(=O)O)c(=O)n21 (centres unmarked) [Example 18, 9-(p-chloro-phenyl-hydrazono)-6-methyl-4-oxo-6,7,8,9-tetrahydro-4H-pyrido(1,2-a)pyrimidine-3-carboxylic acid]
- ED50 (rats [1]; [4]): 0.53 µmol/kg
- ED50 (rats [1]; [3]): 0.53 µmol/kg

- EC50 (Released Hist.; third part of Table 1): 2 µM
Compound: CC1CCC(=NNc2ccc(Br)cc2)c2ncc(C(=O)O)c(=O)n21 (centres unmarked) [Example 16, 9-(p-bromo-phenyl-hydrazono)-6-methyl-4-oxo-6,7,8,9-tetrahydro-4H-pyrido(1,2-a)pyrimidine-3-carboxylic acid]
- inhibition in vivo at 320 µM, 320 µmol/kg (rats [1]; rats): 100%

- EC50 (Released Hist.; third part of Table 1): 312 µM
Compound: CC1CCC(=NNc2cccc(Cl)c2)c2ncc(C(=O)O)c(=O)n21 (centres unmarked) [Example 45, 9-(3-chloro-phenyl-hydrazono)-6-methyl-4-oxo-6,7,8,9-tetrahydro-4H-pyrido(1,2-a)pyrimidine-3-carboxylic acid]
- inhibition in vivo at 320 µM, 320 µmol/kg (rats [1]; rats): 100%

- EC50 (Released Hist.; third part of Table 1): 100 µM
Compound: CC1CCC(=NNc2cccc([N+](=O)[O-])c2)c2ncc(C(=O)O)c(=O)n21 (centres unmarked) [Example 43, 9-(3-nitro-phenyl)-hydrazono-6-methyl-4-oxo-6,7,8,9-tetrahydro-4H-pyrido(1,2-a)pyrimidine-3-carboxylic acid]
- inhibition in vivo at 320 µM, 320 µmol/kg (rats [1]; rats): 100%

Compound: O=C(O)c1cc(=O)c2c(OCC(O)COc3cccc4oc(C(=O)O)cc(=O)c34)cccc2o1 [Disodium-chromoglycate, reference compound]
- anti-asthmatic effect when administered orally (asthma): ineffective when administered orally
- ED50 (rats [1]; [5]): 1 µmol/kg
- activity by route of administration (in words) (rats [1]; oral vs intravenous): effective only when administered intravenously
- PCA test ED50 p.o. (result in words) (rats [1]; rats, p.o.): ineffective
- ED50 (rats [2]): 0.84 µmol/kg

- EC50 (Released Hist.; third part of Table 1): 100 µM
Compound: CC1CCC(=NNc2ccc(Cl)c(Cl)c2)c2ncc(C(=O)O)c(=O)n21 (centres unmarked) [Example 41, 9-(3,4-dichloro-phenyl-hydrazono)-6-methyl-4-oxo-6,7,8,9-tetrahydro-4H-pyrido-(1,2-a)pyrimidine-3-carboxylic acid]
- inhibition in vivo at 320 µM, 320 µmol/kg (rats [1]; rats): 100%

- EC50 (Released Hist.; third part of Table 1): 100 µM
Compound: CC1CCC(=NNc2ccc(C(=O)O)cc2)c2ncc(C(=O)O)c(=O)n21 (centres unmarked) [Example 48, 9-(4-carboxy-phenyl-hydrazono)-6-methyl-4-oxo-6,7,8,9-tetrahydro-4H-pyrido(1,2-a)pyrimidine-3-carboxylic acid]
- inhibition in vivo at 320 µM, 320 µmol/kg (rats [1]; rats): 100%

Compound: CC1CCC(=NNc2ccccc2C(=O)O)c2ncc(C(=O)O)c(=O)n21 (centres unmarked) [Example 17, 9-(o-carboxy-phenyl-hydrazono)-6-methyl-4-oxo-6,7,8,9-tetrahydro-4H-pyrido(1,2-a)pyrimidine-3-carboxylic acid]
- ED50 (rats [1]; [3]): 0.48 µmol/kg

Compound: CC1CCC(=NNc2ccccc2)c2ncc(C(=O)O)c(=O)n21 (centres unmarked) [Example 14, 9-(phenyl-hydrazono)-6-methyl-4-oxo-6,7,8,9-tetrahydro-4H-pyrido(1,2-a)pyrimidine-3-carboxylic acid]
- ED50 (rats [1]; [5]): 0.6 µmol/kg
- ED50 (rats [1]; [6]): 1.2 µmol/kg
- ED50 (rats [2]): 0.31 µmol/kg

- EC50 (Released Hist.; third part of Table 1): 73 µM
Compound: Cc1cccc(NN=C2CCC(C)n3c2ncc(C(=O)O)c3=O)c1 (centres unmarked) [Example 50, 9-(3-methyl-phenyl-hydrazono)-6-methyl-4-oxo-6,7,8,9-tetrahydro-4H-pyrido(1,2-a)pyrimidine-3-carboxylic acid]
- inhibition in vivo at 320 µM, 320 µmol/kg (rats [1]; rats): 100%
